Data: ChEMBL document CHEMBL1201862, “PubChem BioAssay data set” (2004)
Where a name gives a salt, the structure may show the parent alone. Active and inactive are the calls of the source.

Tests used:
[1] = Shn3 3'UTR reporter signal decrease – cell-based, Clone20 osteoblasts, firefly luciferase, cherry-pick, set 2, Schnurri-3 inhibitor project, dose response (AID 720490); type: functional;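 also: actives lower the luminescence signal as inhibitors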
[2] = EF1alpha-driven Renilla reporter with control 3'UTR suppression – Clone20-Shn3RL cells, dual-Glo, cherry-pick, set 2, counter-screen for Shn3 3'UTR targeting project, dose response (AID 720724); type: functional, cell-based; conditions: Dual-Go Shn3RL
[3] = non-specific 3'UTR reporter inhibition in Clone20-Shn3RL – cell-based, Renilla luciferase, cherry-picked, counter-screen for Shn3 inhibitor project, dose response (AID 624133); type: functional
[4] = loss of viability in HepG2 cells – cell-based, CellTiter-Glo, cherry-picked, cytotoxicity control for Shn3 inhibitor project, dose response (AID 624134); type: functional
[5] = reduction of Shn3 3'UTR-driven luciferase in osteoblasts – cell-based, Clone20 osteoblasts, firefly luciferase, cherry-picked, dose response (AID 624132); type: functional;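 also: firefly luciferase luminescence from reporter carrying the Shn3 3'UTR in osteoblasts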
[6] = Late stage assay provider results from the probe development effort to identify inhibitors of the Plasmodium falciparum M17 Leucine Aminopeptidase (M17LAP): radiolabel-based cell-based dose response assay to identify compounds that inhibit P. falciparum growth in RBCs Set 2.; type: functional
Cryptococcus neoformans [7] = assay: PubChem AID 686997; type: functional, organism-based
Cryptococcus neoformans [8] = assay: Cryptococcus growth inhibition by alamar blue – cell lysis, cherry-picks, replicate tests, mechanism study for C. neoformans antifungal project, dose response (AID 686999); type: functional, organism-based
Coagulation factor XII = biological target: T1, Coagulation factor XII (Homo sapiens, UniProt P00748); type: functional;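 also: activated factor XIIa alpha cleaving a fluorogenic AMC peptide substrate; inhibitor potency from loss of enzyme activity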
T1 sequence (P00748 whole entry): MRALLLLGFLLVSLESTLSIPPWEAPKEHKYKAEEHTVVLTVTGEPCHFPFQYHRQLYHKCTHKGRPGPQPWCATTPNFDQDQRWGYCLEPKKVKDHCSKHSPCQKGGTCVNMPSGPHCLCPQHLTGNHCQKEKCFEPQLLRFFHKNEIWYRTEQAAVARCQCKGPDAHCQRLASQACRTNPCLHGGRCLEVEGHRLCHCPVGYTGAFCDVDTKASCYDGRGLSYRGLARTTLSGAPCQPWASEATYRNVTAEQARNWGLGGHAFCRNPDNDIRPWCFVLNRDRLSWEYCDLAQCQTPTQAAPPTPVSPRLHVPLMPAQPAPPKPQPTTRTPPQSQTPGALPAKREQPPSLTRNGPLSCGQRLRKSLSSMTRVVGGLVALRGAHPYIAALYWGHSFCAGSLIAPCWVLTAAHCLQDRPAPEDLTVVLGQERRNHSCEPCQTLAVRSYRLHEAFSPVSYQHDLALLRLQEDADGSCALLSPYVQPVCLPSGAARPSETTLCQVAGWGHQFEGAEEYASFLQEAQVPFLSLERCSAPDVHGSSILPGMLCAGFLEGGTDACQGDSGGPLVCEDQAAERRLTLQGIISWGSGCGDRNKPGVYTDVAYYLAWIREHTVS

[9] = Counterscreen for activators of the function of SWI/SNF related, matrix associated, actin dependent regulator of chromatin, subfamily a, member 2 (SMARCA2, BRM): Luminescence-based cell-based high throughput dose response assay to identify non-selective compounds using the VP16 reporter assay.; type: functional
[10] = biological target: SWI/SNF-related matrix-associated actin-dependent regulator of chromatin subfamily A member 2 (Homo sapiens, UniProt P51531); assay: Luminescence-based cell-based high throughput dose response assay to identify activators of the function of SWI/SNF related, matrix associated, actin dependent regulator of chromatin, subfamily a, member 2 (SMARCA2, BRM).; type: functional
[11] = viability loss in THP-1 monocytes – THP-1 cells, cytotoxicity control for Vif-APOBEC3G degradation inhibitor project, dose response (AID 1117359); type: functional; conditions: THP-1
[12] = biological target: 5-hydroxytryptamine receptor 2A (Mus musculus, UniProt P35363); type: functional, cell-based;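 also: CHO-K1 cells with tagged receptor and beta-arrestin; agonist potency measured as compound-induced activation of the receptor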
Mu-type opioid receptor = Mu-type opioid receptor (Homo sapiens, UniProt P35372); type: functional, cell-based;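 also: U2OS cells with beta-arrestin recruitment to OPRM1 by beta-gal complementation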
[13] = biological target: T2, DNA repair protein RAD52 homolog (Homo sapiens, UniProt P43351); type: functional, biochemical
T2 sequence (P43351 whole entry): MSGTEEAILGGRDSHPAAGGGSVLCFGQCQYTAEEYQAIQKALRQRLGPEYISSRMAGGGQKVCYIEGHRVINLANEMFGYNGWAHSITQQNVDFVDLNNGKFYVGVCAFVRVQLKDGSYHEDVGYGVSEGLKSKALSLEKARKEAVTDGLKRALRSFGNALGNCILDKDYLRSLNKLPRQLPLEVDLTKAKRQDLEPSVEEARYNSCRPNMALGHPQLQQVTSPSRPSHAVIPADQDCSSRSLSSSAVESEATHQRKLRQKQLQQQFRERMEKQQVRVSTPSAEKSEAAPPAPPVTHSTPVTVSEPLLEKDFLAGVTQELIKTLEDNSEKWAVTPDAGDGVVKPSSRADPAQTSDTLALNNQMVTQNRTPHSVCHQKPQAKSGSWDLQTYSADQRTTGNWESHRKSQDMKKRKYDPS

[14] = biological target: FAD-linked sulfhydryl oxidase ALR (Homo sapiens, UniProt P55789); assay: ALR-catalysed DTT oxidation blockers – biochemical, H2O2 detection, luminescence, cherry-pick, dose response (AID 493248)
[15] = HEK-293T viability loss after treatment – luminescence, T-cell screen hits, cytotoxicity control for TCR NF-kB inhibitor project, dose response (AID 489026); type: functional, cell-based;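 also: cells exposed to compound about 14 hours before the viability readout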
[16] = Luminescence Cell-Based Dose Retest to Confirm Inhibitors of Cancer Stem Cells. [Related pubchem assays (depositor defined):AID2717, AID2721]; type: functional; conditions: Homo sapiens
[17] = acridine orange displacement from DNA – biochemical, fluorescence polarization, cherry-pick, artefact control for RAD54 inhibitor project, dose response (AID 651673); type: functional
[18] = biological target: T3, DNA repair and recombination protein RAD54-like (Homo sapiens, UniProt Q92698); assay: RAD54 Holliday junction migration blockers – biochemical, fluorescence, cherry-picked samples, dose series, confirmation (AID 651657); type: functional
T3 sequence (Q92698 whole entry): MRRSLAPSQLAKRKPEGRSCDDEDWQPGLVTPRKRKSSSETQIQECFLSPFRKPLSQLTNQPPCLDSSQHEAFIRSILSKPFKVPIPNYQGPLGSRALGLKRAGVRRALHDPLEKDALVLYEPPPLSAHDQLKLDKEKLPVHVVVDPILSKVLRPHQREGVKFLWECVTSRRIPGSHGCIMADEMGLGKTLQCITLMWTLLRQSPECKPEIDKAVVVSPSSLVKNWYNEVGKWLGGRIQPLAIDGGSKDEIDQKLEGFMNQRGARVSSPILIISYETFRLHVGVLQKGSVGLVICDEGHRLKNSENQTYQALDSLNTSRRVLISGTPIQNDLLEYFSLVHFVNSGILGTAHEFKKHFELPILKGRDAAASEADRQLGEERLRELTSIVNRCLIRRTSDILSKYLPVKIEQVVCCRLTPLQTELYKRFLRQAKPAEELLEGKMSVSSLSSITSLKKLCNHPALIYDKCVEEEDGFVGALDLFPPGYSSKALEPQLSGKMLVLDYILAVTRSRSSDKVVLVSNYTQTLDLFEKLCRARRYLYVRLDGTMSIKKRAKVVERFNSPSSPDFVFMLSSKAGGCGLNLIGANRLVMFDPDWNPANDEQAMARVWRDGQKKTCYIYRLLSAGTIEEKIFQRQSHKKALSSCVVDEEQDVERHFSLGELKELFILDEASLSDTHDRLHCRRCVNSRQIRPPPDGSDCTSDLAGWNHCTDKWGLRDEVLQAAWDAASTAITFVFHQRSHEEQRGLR

[19] = cytotoxicity toward MDA-MB-231 breast cancer cells – cell-based, CellTiter-Glo luminescence, cherry-pick, cytotoxicity control for RAD54 inhibitor project, dose response (AID 651692); type: functional
cells = type: functional, cell-based; conditions: HEK-CNG
[20] = biological target: Eukaryotic translation initiation factor 4E (Mus musculus, UniProt P63073); assay: blockers of eIF4G binding by eIF4E – biochemical, TR-FRET, dose response (AID 855); type: functional;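 also: potency for disrupting eIF4E binding to eIF4GI seen as loss of FRET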
HEK293 [21] = assay: cells; type: functional, cell-based; conditions: Homo sapiens
Tumor necrosis factor = Tumor necrosis factor (Homo sapiens, UniProt P01375); assay: analog potency on TNFa NF-kB signaling – cell-based, revised, SAR follow-up (AID 2337); type: functional
[22] = off-target signal loss in HeLa-CEM21 co-culture – HeLa F-luc CTL cells, cherry-picked, counter-screen for HIV-1 Env fusion inhibitor project, dose response (AID 652040); type: functional, cell-based;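 also: potency for signal decrease marking cytotoxic or nonspecific inhibition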
[23] = biological target: Nucleotide-binding oligomerization domain-containing protein 1 (Homo sapiens, UniProt Q9Y239); assay: blockers of NOD1 pathway activity – revised, SAR follow-up (AID 2333); type: functional
HEK293 [24] = assay: NOD2 signaling inhibitors in MDP-stimulated cells, cell-based, uHTS, luminescence (AID 2001); type: functional; conditions: Homo sapiens
HEK293 [25] = assay: cells; conditions: Homo sapiens
HEK293 [26] = assay: cells; type: functional, cell-based; conditions: Homo sapiens; remark: listed apart in the source
[27] = HEK-293T viability loss, compound-treated – cell-based, uHTS hits, cytotoxicity control for B/T-cell NF-kB inhibitor project, dose response (AID 489019); type: functional;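 also: IC50 reflects cytotoxicity as loss of cell viability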
HEK293 [28] = assay: inhibition of NOD1-driven NF-kB reporter – cell-based, luminescence, uHTS, primary screen (AID 1578); type: functional; conditions: Homo sapiens
Jurkat = assay: blockers of NF-kB activation in T cells – Jurkat, luciferase reporter, luminescence, B- and T-cell, dose response (AID 489004); type: functional, cell-based; conditions: Homo sapiens;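 also: NF-kB luciferase reporter Jurkat cells stimulated with PMA plus ionomycin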
Galanin receptor type 3 = Galanin receptor type 3 (Homo sapiens, UniProt O60755); assay: Fluorescence-based cell-based primary high throughput dose response assay to identify antagonists of the Galanin Receptor 3 (GalR3).; type: functional
[29] = HIV-1 AD8 envelope cell-cell fusion blockers – cherry-pick, dose response (AID 652062); type: functional, cell-based;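 also: luciferase signal from cell-cell fusion driven by HIV-1 clade B AD8 Env; potency is for inhibitors of fusion seen as a drop in luminescence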
Vero [30] = assay: viability loss in Vero cells – cell-based, plate reader, cherry-pick samples, cytotoxicity control, dose response (AID 687020); type: functional; conditions: Chlorocebus sabaeus
[31] = test system: Streptococcus sp. 'group A'; assay: Streptococcus pyogenes SK(-)GAS viability under kanamycin – luminescence, BacTiterGlo, confirmation, counter-screen for streptokinase expression inhibitor project, dose response (AID 1900); type: functional, organism-based
Streptococcus = assay: GAS UMAA2166 growth inhibition – luminescence, BacTiterGlo, counter-screen for streptokinase expression inhibitor project, dose response (AID 1915); type: functional, organism-based;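 also: potency for reduction of bacterial viability or growth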
[32] = NIH-3T3 fibroblast cytotoxicity, dose response, cytotoxicity control, cell-based, fluorescence, Alamar Blue, secondary assay (AID 2327); type: functional;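 also: NIH-3T3 mouse fibroblasts cultured with fluconazole at 8 µg/mL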
Vero [33] = assay: cells; type: functional; conditions: Chlorocebus sabaeus
[34] = fluconazole-exposed Candida albicans growth modulators – fluorescence, retest, confirmation (AID 2467); type: functional, cell-based
[35] = HGIII-sPLA2 enzyme inhibition potency – biochemical, QFRET, IC50, dose response (AID 743457);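 also: green fluorescence rise as the enzyme cleaves BODIPY PC-A2 in liposomes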
[36] = Trypanosoma cruzi growth suppression in host cells – NIH3T3 host cells, beta-gal luminescence, confirmation (AID 2044); type: functional, cell-based;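 also: intracellular parasites grown in NIH/3T3 mouse fibroblasts as host cells; luminescent beta-galactosidase reporter signal from transgenic T. cruzi replicating inside host cells; inhibitors lower the luminescence signal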
[37] = activation of miR-122 Renilla sensor silencing – cell-based, Huh7 psiCHECK-miR122, Renilla luciferase, cherry-picked, dose response (AID 651956); type: functional;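 also: huh7 hepatoma cells stably carrying a psiCHECK-2 miR-122 sensor plasmid; renilla luciferase signal reporting endogenous miR-122 activity after 48 h compound exposure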

Chain of Galanin receptor type 3 (O60755 whole entry, the tested form may be a part): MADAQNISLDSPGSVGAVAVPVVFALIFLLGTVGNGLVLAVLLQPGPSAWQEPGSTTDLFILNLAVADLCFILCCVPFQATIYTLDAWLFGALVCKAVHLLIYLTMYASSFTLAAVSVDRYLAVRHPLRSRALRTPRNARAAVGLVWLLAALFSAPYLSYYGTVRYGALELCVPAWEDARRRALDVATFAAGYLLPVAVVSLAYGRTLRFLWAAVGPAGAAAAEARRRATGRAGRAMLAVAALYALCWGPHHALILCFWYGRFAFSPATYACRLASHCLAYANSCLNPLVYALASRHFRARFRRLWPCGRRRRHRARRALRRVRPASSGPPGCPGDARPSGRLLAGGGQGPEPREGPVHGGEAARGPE
Chain of FAD-linked sulfhydryl oxidase ALR (P55789 whole entry): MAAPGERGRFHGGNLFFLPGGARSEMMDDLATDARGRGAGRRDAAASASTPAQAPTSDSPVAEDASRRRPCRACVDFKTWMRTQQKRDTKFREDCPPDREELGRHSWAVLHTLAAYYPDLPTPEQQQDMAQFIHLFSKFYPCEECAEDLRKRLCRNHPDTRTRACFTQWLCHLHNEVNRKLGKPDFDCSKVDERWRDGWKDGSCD
Chain of Mu-type opioid receptor (P35372 whole entry): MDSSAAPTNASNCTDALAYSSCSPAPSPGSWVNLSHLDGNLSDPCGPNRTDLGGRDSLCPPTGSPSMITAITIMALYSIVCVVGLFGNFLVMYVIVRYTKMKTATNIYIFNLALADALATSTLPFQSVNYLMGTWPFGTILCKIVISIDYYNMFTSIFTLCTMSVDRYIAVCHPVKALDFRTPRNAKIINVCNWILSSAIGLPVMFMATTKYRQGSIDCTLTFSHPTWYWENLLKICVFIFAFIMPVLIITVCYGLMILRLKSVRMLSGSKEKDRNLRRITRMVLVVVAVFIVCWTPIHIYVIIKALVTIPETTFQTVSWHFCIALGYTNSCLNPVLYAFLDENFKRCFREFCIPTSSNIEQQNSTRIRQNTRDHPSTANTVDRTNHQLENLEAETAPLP
Chain of SWI/SNF-related matrix-associated actin-dependent regulator of chromatin subfamily A member 2 (P51531 whole entry): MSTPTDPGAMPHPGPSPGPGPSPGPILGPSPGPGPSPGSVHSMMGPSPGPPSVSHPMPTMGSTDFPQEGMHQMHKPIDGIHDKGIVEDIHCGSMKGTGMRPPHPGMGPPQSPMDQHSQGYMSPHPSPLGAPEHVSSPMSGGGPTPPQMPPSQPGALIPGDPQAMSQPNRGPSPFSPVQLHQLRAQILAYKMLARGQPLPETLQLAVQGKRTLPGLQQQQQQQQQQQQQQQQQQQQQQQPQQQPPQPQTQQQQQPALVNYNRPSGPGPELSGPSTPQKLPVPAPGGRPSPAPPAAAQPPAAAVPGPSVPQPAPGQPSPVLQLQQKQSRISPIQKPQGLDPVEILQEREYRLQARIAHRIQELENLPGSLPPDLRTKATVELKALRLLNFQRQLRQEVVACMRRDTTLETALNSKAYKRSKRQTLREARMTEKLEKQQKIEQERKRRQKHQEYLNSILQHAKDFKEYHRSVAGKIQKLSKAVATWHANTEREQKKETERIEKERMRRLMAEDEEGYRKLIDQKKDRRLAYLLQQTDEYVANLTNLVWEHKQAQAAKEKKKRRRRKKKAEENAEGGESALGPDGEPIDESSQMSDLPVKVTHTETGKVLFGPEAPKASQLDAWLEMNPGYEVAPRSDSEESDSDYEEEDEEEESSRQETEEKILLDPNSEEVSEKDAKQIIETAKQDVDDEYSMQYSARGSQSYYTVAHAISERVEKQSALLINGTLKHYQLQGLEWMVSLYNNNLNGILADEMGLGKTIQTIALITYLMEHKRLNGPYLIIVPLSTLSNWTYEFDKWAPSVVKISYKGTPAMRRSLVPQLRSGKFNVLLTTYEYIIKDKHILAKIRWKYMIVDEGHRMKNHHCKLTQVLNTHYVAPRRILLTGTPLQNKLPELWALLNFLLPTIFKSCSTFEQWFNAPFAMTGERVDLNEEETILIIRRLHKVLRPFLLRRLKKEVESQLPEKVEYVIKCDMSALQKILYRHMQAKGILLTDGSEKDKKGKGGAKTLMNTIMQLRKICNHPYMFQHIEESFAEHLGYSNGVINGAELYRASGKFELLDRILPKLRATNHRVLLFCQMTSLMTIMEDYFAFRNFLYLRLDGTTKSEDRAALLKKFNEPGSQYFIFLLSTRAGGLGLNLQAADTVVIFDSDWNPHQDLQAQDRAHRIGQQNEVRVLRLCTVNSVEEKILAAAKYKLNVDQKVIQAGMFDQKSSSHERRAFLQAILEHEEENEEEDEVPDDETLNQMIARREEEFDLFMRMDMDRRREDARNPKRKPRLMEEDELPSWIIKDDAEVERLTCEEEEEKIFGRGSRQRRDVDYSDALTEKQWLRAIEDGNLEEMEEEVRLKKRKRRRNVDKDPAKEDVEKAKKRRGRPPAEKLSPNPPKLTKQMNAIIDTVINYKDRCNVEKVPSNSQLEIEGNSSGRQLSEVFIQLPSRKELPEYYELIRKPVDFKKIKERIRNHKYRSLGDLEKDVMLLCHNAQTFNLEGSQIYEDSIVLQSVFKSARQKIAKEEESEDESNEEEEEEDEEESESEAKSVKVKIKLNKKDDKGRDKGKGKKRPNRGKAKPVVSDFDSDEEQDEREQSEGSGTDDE
Chain of Eukaryotic translation initiation factor 4E (P63073 whole entry): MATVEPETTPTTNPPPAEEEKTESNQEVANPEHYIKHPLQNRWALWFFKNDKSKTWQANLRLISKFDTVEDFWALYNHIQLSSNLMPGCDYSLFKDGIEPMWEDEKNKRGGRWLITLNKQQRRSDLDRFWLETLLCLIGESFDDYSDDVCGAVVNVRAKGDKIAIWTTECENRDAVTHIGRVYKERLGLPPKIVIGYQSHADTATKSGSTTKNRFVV
Chain of 5-hydroxytryptamine receptor 2A (P35363 whole entry): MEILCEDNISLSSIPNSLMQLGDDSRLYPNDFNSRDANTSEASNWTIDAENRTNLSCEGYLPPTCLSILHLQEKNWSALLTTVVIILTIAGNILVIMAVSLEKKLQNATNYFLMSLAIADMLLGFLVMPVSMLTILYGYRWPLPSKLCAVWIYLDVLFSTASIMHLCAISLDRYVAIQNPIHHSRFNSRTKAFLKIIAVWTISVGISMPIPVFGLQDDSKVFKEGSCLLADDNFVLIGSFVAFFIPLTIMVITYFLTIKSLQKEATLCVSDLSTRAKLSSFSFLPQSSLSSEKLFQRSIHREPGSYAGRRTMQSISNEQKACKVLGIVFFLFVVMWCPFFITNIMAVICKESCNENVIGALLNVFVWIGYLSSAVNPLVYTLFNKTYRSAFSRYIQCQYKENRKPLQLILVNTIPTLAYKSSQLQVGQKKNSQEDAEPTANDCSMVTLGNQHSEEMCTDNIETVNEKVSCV
Chain of Tumor necrosis factor (P01375 whole entry, the tested form may be a part): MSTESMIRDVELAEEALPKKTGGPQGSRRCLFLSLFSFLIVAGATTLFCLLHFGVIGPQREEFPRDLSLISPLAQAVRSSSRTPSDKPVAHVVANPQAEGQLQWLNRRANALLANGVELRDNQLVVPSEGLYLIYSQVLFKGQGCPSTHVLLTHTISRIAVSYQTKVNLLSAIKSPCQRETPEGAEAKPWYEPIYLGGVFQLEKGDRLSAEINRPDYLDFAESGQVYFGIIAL
Chain of Nucleotide-binding oligomerization domain-containing protein 1 (Q9Y239 whole entry, the tested form may be a part): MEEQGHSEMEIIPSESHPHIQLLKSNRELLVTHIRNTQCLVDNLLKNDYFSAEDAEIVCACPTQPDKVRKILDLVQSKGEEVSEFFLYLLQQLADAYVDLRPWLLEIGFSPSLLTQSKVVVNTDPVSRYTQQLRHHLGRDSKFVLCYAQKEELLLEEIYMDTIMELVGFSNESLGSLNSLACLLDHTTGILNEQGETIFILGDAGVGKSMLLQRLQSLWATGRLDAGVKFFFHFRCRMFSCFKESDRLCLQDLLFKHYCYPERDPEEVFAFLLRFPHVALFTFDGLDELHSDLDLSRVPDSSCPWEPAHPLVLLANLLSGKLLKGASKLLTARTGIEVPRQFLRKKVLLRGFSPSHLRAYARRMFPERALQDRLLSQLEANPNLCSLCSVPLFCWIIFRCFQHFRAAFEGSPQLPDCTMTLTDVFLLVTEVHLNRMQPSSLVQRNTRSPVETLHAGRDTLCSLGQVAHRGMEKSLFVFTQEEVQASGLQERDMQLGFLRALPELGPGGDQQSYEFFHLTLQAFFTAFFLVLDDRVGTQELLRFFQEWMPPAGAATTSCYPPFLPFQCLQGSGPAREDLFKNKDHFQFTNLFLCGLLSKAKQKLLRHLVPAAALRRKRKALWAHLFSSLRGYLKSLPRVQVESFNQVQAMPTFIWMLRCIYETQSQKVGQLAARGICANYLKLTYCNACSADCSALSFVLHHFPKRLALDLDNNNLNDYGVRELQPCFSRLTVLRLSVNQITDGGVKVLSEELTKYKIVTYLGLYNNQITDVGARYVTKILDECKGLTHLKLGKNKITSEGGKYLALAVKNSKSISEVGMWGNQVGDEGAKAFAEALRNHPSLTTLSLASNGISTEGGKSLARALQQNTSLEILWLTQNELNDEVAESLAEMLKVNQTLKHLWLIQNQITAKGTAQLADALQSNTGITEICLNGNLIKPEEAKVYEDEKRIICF

CC1CCCC(NC(=O)c2cccc(S(=O)(=O)N3CCN(c4ccccc4)CC3)c2)C1C (stereo not drawn)
AC50 [1]: 4.29 µM (active)
AC50 [2]: 25.2 µM (active)
AC50 [3]: > 70 µM (inactive)
AC50 [4]: > 70 µM (inactive)
AC50 [5]: 3.14 µM (active)

COc1ccc(CC(=O)NO)cc1
IC50 [6]: 20 µM (inactive)

COC(=O)C1=C(C)N(Cc2ccc(Cl)cc2)C(=S)NC1c1ccc(F)cc1 (stereo not drawn)
AC50 (Cryptococcus neoformans [7]): 35.4 µM (active)
AC50 (Cryptococcus neoformans [7]; Cryptococcus neoformans): 23.6 µM (active)
AC50 (Cryptococcus neoformans [8]): 43 µM (active)

CC1(C)CC(=O)C(=NNc2ccc(Br)cc2)C(=O)C1
IC50 (Coagulation factor XII): > 50 µM (inactive)
EC50 [9]: > 91.1 µM (inactive)
EC50 [10]: > 91.1 µM (inactive)
CC50 [11]: > 40 µM (active)

Cc1ccc(C(=O)N/C(=C/c2ccccc2)C(=O)NC(Cc2ccccc2)C(=O)O)cc1 (stereo not drawn)
EC50 [12]: 76.1 µM (inactive)
EC50 (Mu-type opioid receptor): 92.5 µM (inactive)

COc1cc(NS(C)(=O)=O)ccc1Nc1c2ccccc2nc2ccccc12 [AMSACRINE HYDROCHLORIDE]
AC50 [13]: 6.83 µM (active)
AC50 [3]: 7.09 µM (active)
AC50 [4]: 18.9 µM (active)
AC50 [5]: 1.32 µM (active)
AC50 [14]: 16 µM (active)
IC50 [15]: > 80 µM (inactive)
AC50 [16]: 0.91 µM (active)
AC50 [17]: 39.4 µM (active)
AC50 [18]: 11.6 µM (active)
AC50 [19]: 23.3 µM (active)

CCCCCn1c(=O)[nH]c2cc(C(=O)N3CCN(Cc4ccc5c(c4)OCO5)CC3)ccc2c1=O
EC50 (cells): > 29.9 µM (inactive)
IC50 [20]: > 64 µM (inactive)
IC50 (HEK293 [21]): 0.97 µM (active)
IC50 (Tumor necrosis factor): 1.18 µM (active)
AC50 [22]: > 70 µM (inactive)
IC50 [23]: 0.771 µM (active)
IC50 (HEK293 [24]): 1.27 µM (active)
IC50 (HEK293 [25]): > 20 µM (inactive)
IC50 (HEK293 [26]): 8.7 µM (active)
IC50 [27]: > 80 µM (inactive)
EC50 (HEK293 [28]): 0.36 µM (active)
IC50 (Jurkat): > 80 µM (inactive)
IC50 (Galanin receptor type 3): 0.148 µM (active)
AC50 [29]: < 0.26 µM (active)

Cc1cc(F)ccc1C(O)c1nc(-c2ccccc2C(F)(F)F)c[nH]1 (stereo not drawn)
AC50 (Vero [30]): 33.5 µM (active)

Cc1cc(C(=O)Nc2nc(-c3ccccn3)cs2)ccc1[N+](=O)[O-]
EC50 [31]: 0.471 µM (active)
EC50 (Streptococcus): 7.36 µM (active)
EC50 [32]: > 150 µM (inactive)
CC50 (Vero [33]): > 25 µM (active)
EC50 [34]: 1.25 µM (active)
IC50 [35]: > 122 µM (inactive)
EC50 [36]: 1.11 µM (active)

CNC(=O)C[C@H]1CC[C@@H]2[C@@H](COc3ccc(NC(=O)Nc4ccc(Cl)cc4)cc3C(=O)N2C)O1
AC50 [37]: 29 µM (active)
